Measured values: US11919865B2, “Processes for preparing AG-10, its intermediates, and salts thereof” (EIDOS THERAPEUTICS, INC., priority 2017, dated 2024)
Several values for one entry are separate records, joined by “and”; a condition that tells them apart may be missing. Equal values may be shown once.

Tests used:
[1] = Oral dosing of AG-10 forms, plasma pharmacokinetics by LC-MS/MS; assay type: in vivo, Dog; details: for Exposure (0-24 h) / Cmax: dog
Method: (§1) Rats or Dogs were orally dosed with the zwitterion, Na salt, or HCl salt for of AG-10. Plasma samples from each rat/dog, as applicable, were measured between 0 and up to 96 hours after dosing with the specified form of AG-10. After isolation from the animal, each sample (50 μL) was protein precipitated by adding 500 μL 0.1% formamide in acetonitrile to the sample. After addition for the formamide solution, the sample was vortexed and centrifuging at 1400 rpm for 15 min at 4° C. 100 μL of the supernatant was removed and diluted with 100 μL water. 5 μL of the diluted sample was injected for LC-MS/MS analysis.

[2] = Intravenous dosing of AG-10 forms, plasma pharmacokinetics by LC-MS/MS; assay type: in vivo
Method: as §1, with “Mice, Rats” for “Rats”, “were intravenously” for “were orally”, “each mouse/rat/dog,” for “each rat/dog,”, “and 24” for “and up to 96”, “diluted samples” for “diluted sample”

[3] = as above; details: in vivo, dog, 1 mg/kg, the Cmax reported is an extrapolated C0
Method: as §1, with “Mice, Rats” for “Rats”, “were intravenously” for “were orally”, “each mouse/rat/dog,” for “each rat/dog,”, “and 24” for “and up to 96”, “diluted samples” for “diluted sample”

[4] = Oral dosing of AG-10 forms, plasma pharmacokinetics by LC-MS/MS; assay type: in vivo, Rat
Method: as §1

[5] = Bioavailability of AG-10 in male and female dogs at different oral dosing levels; assay type: in vivo; details: oral 5 mg/kg or 20 mg/kg, plasma 2-24 hours
Method: The mean plasma concentration of AG-10 was measured from 2-24 hours after oral dosing with 5 mg/kg or 20 mg/kg of AG-10. The calculated pharmacokinetic data is shown in FIG. 3B, FIG. 3D and FIG. 3F.

[6] = Bioavailability of AG-10, mean plasma concentration after intravenous and oral dosing; assay type: in vivo; details: 1 mg/kg intravenously and 5 mg/kg orally, plasma 0-24 hours
Method: The mean plasma concentration of AG-10 was measured from 0-24 hours after dosing with 1 mg/kg of AG-10 intravenously and 5 mg/kg of AG-10 orally. The calculated pharmacokinetic data is shown in FIG. 2B, FIG. 2D, and FIG. 2F.

What does the source list for `Cc1n[nH]c(C)c1CCCOc1cc(C(=O)O)ccc1F.Cl` [HCl salt, 3-[3-(3,5-dimethyl-1H-pyrazol-4-yl)propoxy]-4-fluorobenzoic acid hydrochloride salt]?
Exposure (0-24 h) ([1]; 20 mg/kg): 69,088 ng · h/mL; Exposure (0-24 h) ([1]; 25 mg/kg): 128,374 ng · h/mL; Exposure (0-24 h) ([1]; 60 mg/kg): 155,814 ng · h/mL; Exposure (0-24 h) ([1]; 200 mg/kg): 1,020,640 ng · h/mL; Cmax values as compared to the zwitterion ([1]; dogs, Table 3 row 6 vs row 4): surprising and significant improvement in Cmax values; Cmax ([1]; in vivo, 20 mg/kg): 16100 ng/mL and 55.1 µM; Cmax ([1]; in vivo, 25 mg/kg): 25100 ng/mL and 85.8 µM; Cmax ([1]; in vivo, 60 mg/kg): 41800 ng/mL and 143 µM; Cmax ([1]; in vivo, 200 mg/kg): 154000 ng/mL and 528 µM; Cmax ([2]; in vivo, rat, 1 mg/kg, the Cmax reported is an extrapolated C0, read-out: Cmax (extrapolated C0)): 4280 ng/mL and 14.6 µM; Cmax [3]: 5960 ng/mL and 20.4 µM; Cmax ([4]; in vivo, rat, 200 mg/kg): 216000 ng/mL and 741 µM; Exposure (0-24 h) ([4]; rat, 200 mg/kg): 395,503 ng · h/mL; Cmax values as compared to the zwitterion and the Na salt ([4]; rats, Table 3 row 3 vs row 1): surprising and significant improvement in Cmax values

Which “Exposure (0-24 h)” value ([1]; 25 mg/kg) does the source give for `Cc1n[nH]c(C)c1CCCOc1cc(C(=O)O)ccc1F` [Zwitterion, 3-(3-(3,5-dimethyl-1H-pyrazol-4-yl)propoxy)-4-fluorobenzoic acid] here?
Its value is 89,786 ng · h/mL.

What about the Cmax ([1]; plasma, 25 mg/kg) of the same compound?
Its Cmax is 17500 ng/mL and 60 µM.

What about the Cmax ([2]; mouse, 3 mg/kg) of the same compound?
Its Cmax is 4480 ng/mL and 15.4 µM.

What about the Cmax ([2]; plasma, rat, 3.43 mg/kg, read-out: Cmax) of the same compound?
The Cmax was 3090 ng/mL and 10.6 µM.

What about the Cmax ([4]; plasma, rat, 200 mg/kg) of the same compound?
Its Cmax is 26400 ng/mL and 90.3 µM.

For `Cc1n[nH]c(C)c1CCCOc1cc(C(=O)O)ccc1F` [AG-10, 3-(3-(3,5-dimethyl-1H-pyrazol-4-yl)propoxy)-4-fluorobenzoic acid], which Bioavailability [5] is on record?
Its Bioavailability is “high bioavailability”.

And the Bioavailability ([6]; dogs)?
The Bioavailability was “high bioavailability”.

And the Bioavailability ([6]; mice)?
Its Bioavailability is “high bioavailability”.

What about the Bioavailability ([6]; rats) of the same compound?
Its Bioavailability is “high bioavailability”.
